Laboratory results reported in patent US11225471B2, “Antidiabetic bicyclic compounds” (Merck Sharp & Dohme Corp., priority 2017, dated 2022).

Biological target: T1, human GPR40 (Homo sapiens, UniProt O14842)
T1 construct: expressed in transfected cells
Assay: Inositol Phosphate Turnover (IP1) Assay
Type: cell-based
Details: HEK cells stably expressing human GPR40; 60 min incubation
Experimental: Human GPR40 stable cell-lines were generated in HEK cells. The expression plasmids were transfected using lipofectamine (Life Technologies) following manufacturer's instructions. Stable cell-lines were generated following drug selection and single cell cloning. The assay was performed in 384-well format. HEK cells stably expressing human GPR40 were plated at 7500 cells per well in growth medium (DMEM/10% fetal calf serum). Cell plates were then incubated 16 hours at 37 degrees in a 5% CO2 incubator. Measurement of Inositol Phosphate Turnover (IP1) was performed using the CisBio IP-One kit (Part number 62IPAPEB). After the 16 hour incubation, the growth media was removed by centrifugation using the BlueWasher (AusWasher GUI Ver. v1.0.1.8) Protocol #21-“Light Dry” and 10 ul of stimulation buffer (prepared as described in the kit) was added to each well. In a separate plate, compounds were diluted in DMSO (200-fold over the final concentration in the assay well) and 50 nl was acoustically transferred to the appropriate well in the assay cell plate. The plates were then incubated for 60 minutes at 37 degrees in a 5% CO2 incubator. 10 ul of detection buffer (also prepared as described in the IP-One kit) was added to each well and the plates were incubated at room temperature for 60 minutes in the dark. The plates were then read in a Perkin Elmer EnVision or equivalent reader able to measure FRET. Fluorescent ratio of emission at 665 and 620 nm was then converted to IP1 concentration by back calculating from an IP1 standard curve prepared at the time of the assay. Data were normalized to % activity using a reference compound and EC50s determined using a standard 4-parameter fit.

T1 sequence (O14842 whole entry): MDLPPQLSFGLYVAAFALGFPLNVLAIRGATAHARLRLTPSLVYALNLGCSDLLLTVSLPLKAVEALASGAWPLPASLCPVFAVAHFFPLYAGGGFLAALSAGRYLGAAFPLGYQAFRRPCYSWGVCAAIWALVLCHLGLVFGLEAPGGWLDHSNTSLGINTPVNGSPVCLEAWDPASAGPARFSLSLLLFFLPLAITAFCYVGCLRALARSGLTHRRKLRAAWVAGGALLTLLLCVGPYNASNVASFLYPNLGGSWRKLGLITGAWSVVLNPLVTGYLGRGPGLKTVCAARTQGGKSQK

SMILES | EC50
CCOc1cc(-c2ncc([C@@H]3CCc4ccc([C@H](C5CC5)[C@H](C)C(=O)O)c(F)c4O3)nc2C)c(F)cn1 [Example 12, (2S,3R)-3-cyclopropyl-3-((S)-2-(5-(2-ethoxy-5-fluoropyridin-4-yl)-6-methylpyrazin-2-yl)-8-fluorochroman-7-yl)-2-methylpropanoic Acid] | 4.3 nM
CCOc1cc(-c2cnc(C3CCc4ccc([C@H](C5CC5)[C@H](C)C(=O)O)c(F)c4O3)c(C)n2)c(F)cn1 (single isomer, unassigned) [Example 20] | 0.4 nM
COc1cc(-c2cnc(C3CCc4ccc([C@H](C5CC5)[C@H](C)C(=O)O)c(F)c4O3)c(C)n2)c(Cl)cn1 (single isomer, unassigned) [Example 22] | 1.6 nM
CCc1nc([C@H]2CCc3ccc([C@H](C4CC4)[C@H](C)C(=O)O)cc3O2)cnc1-c1cc(OC)ncc1F [Example 23, (2S,3R)-3-cyclopropyl-3-((R)-2-(6-ethyl-5-(5-fluoro-2-methoxypyridin-4-yl)pyrazin-2-yl)chroman-7-yl)-2-methylpropanoic acid] | 6.5 nM
COc1cc(-c2ncc(C3CCc4ccc([C@H](C5CC5)[C@H](C)C(=O)O)cc4O3)nc2C)c(Cl)cn1 (single isomer, unassigned) [Example 14] | 13.8 nM
COc1cc(-c2cnc(C3CCc4ccc([C@H](C5CC5)[C@H](C)C(=O)O)cc4O3)c(C)n2)c(C2CC2)cn1 (single isomer, unassigned) [Example 26] | 5.4 nM
CCOc1cc(-c2cnc(C3CCc4ccc([C@H](C5CC5)[C@H](C)C(=O)O)cc4O3)c(C)n2)c(F)cn1 (single isomer, unassigned) [Example 9] | 0.7 nM
COc1cc(-c2ncc(C3CCc4ccc([C@H](C5CC5)[C@H](C)C(=O)O)cc4O3)nc2C)c(Cl)cn1 (single isomer, unassigned) [Example 13] | 4.1 nM
COc1cc(-c2cnc(C3CCc4ccc([C@H](C5CC5)[C@H](C)C(=O)O)c(F)c4O3)c(C)n2)c(F)cn1 (single isomer, unassigned) [Example 17] | 0.3 nM
CCc1nc([C@@H]2CCc3ccc([C@H](C4CC4)[C@H](C)C(=O)O)cc3O2)cnc1-c1cc(OC)ncc1F [Example 24, (2S,3R)-3-cyclopropyl-3-((S)-2-(6-ethyl-5-(5-fluoro-2-methoxypyridin-4-yl)pyrazin-2-yl)chroman-7-yl)-2-methylpropanoic Acid] | 2.3 nM
COc1cc(-c2cnc(C3CCc4ccc([C@H](C5CC5)[C@H](C)C(=O)O)c(F)c4O3)c(C)n2)c(F)cn1 (single isomer, unassigned) [Example 18] | 4.2 nM
CCOc1cc(-c2cnc(C3CCc4ccc([C@H](C5CC5)[C@H](C)C(=O)O)c(F)c4O3)c(C)n2)c(F)cn1 (single isomer, unassigned) [Example 19] | 1.1 nM
COc1cc(-c2cnc([C@H]3C[C@H](OC)c4ccc([C@H](C5CC5)[C@H](C)C(=O)O)cc4O3)cn2)c(F)cn1 [Example 27, (2S,3R)-3-cyclopropyl-3-{(2R,4S)-2-[5-(5-fluoro-2-methoxypyridin-4-yl)pyrazin-2-yl]-4-methoxy-3,4-dihydro-2H-chromen-7-yl}-2-methylpropanoic Acid] | 1.7 nM
CCOc1cc(-c2ncc(C3CCc4ccc([C@H](C5CC5)[C@H](C)C(=O)O)cc4O3)nc2C)c(F)cn1 (single isomer, unassigned) [Example 4] | 6.9 nM
COc1cc(-c2cnc([C@@H]3CCc4ccc([C@H](C5CC5)[C@H](C)C(=O)O)cc4O3)c(C)n2)c(Cl)cn1 (single isomer, unassigned) [Example 1] | 0.6 nM
COc1cc(-c2cnc(C3CCc4ccc([C@H](C5CC5)[C@H](C)C(=O)O)c(F)c4O3)c(C)n2)c(Cl)cn1 (single isomer, unassigned) [Example 21] | 0.3 nM
COc1cc(-c2cnc([C@H]3CCc4ccc([C@H](C5CC5)[C@H](C)C(=O)O)cc4O3)c(C)n2)c(Cl)cn1 (single isomer, unassigned) [Example 2] | 1.3 nM
Cc1nc(-c2cc(OCC(F)F)ncc2F)cnc1C1CCc2ccc([C@H](C3CC3)[C@H](C)C(=O)O)cc2O1 (single isomer, unassigned) [Example 7] | 0.9 nM
Cc1nc(-c2cc(OCC(F)F)ncc2F)cnc1C1CCc2ccc([C@H](C3CC3)[C@H](C)C(=O)O)cc2O1 (single isomer, unassigned) [Example 8] | 1 nM
COc1cc(-c2ncc(C3CCc4ccc([C@H](C5CC5)[C@H](C)C(=O)O)cc4O3)nc2C)c(Cl)cn1 (single isomer, unassigned) [Example 5] | 11.2 nM
CCOc1cc(-c2ncc(C3CCc4ccc([C@H](C5CC5)[C@H](C)C(=O)O)cc4O3)nc2C)c(F)cn1 (single isomer, unassigned) [Example 3] | 7.8 nM
CCOc1cc(-c2ncc([C@H]3CCc4ccc([C@H](C5CC5)[C@H](C)C(=O)O)c(F)c4O3)nc2C)c(F)cn1 [Example 11, (2S,3R)-3-cyclopropyl-3-((R)-2-(5-(2-ethoxy-5-fluoropyridin-4-yl)-6-methylpyrazin-2-yl)-8-fluorochroman-7-yl)-2-methylpropanoic acid] | 3.5 nM
COc1cc(-c2ncc(C3CCc4ccc([C@H](C5CC5)[C@H](C)C(=O)O)c(F)c4O3)nc2C)c(F)cn1 (single isomer, unassigned) [Example 15] | 3 nM
COc1cc(-c2ncc(C3CCc4ccc([C@H](C5CC5)[C@H](C)C(=O)O)c(F)c4O3)nc2C)c(F)cn1 (single isomer, unassigned) [Example 16] | 6.6 nM
COc1cc(-c2ncc(C3CCc4ccc([C@H](C5CC5)[C@H](C)C(=O)O)cc4O3)nc2C)c(Cl)cn1 (single isomer, unassigned) [Example 6] | 3.3 nM
COc1cc(-c2cnc(C3CCc4ccc([C@H](C5CC5)[C@H](C)C(=O)O)cc4O3)c(C)n2)c(C)cn1 (single isomer, unassigned) [Example 25] | 8.1 nM
